Data published in patent US20240398725A1, “NANOPARTICLES FOR CANCER TREATMENT” (priority 2021, published 2024).

Tests used:
[1] = test system: SW872-DXR; assay: MTS assay, doxorubicin IC50 in doxorubicin-resistant SW872-DXR; assay type: cell-based; conditions: Homo sapiens
Source text: (§1) The dedifferentiated liposarcoma cell line (SW872) is one of the earliest STS model systems that has been extensively studied in preclinical investigations (Dodd 2010, Stratford 2012).
(§2) The SW872-DXR model was derived from the commercial cell line SW872. The resistance to doxorubicin was initiated in 2D cultures, by adding increased concentrations of doxorubicin every 2 weeks, starting from the IC50 concentrations of doxorubicin of the “parental” cell line SW872. The resistance of this cell line was verified by 3-(4,5-dimethylthiazol-2-yl)-5-(3-carboxymethoxyphenyl)-2-(4-sulfophenyl)-2H-tetrazolium (MTS) assay.

[2] = test system: SW872; assay: MTS assay, doxorubicin IC50 in parental cell line SW872; assay type: cell-based; conditions: Homo sapiens
Source text: as §1, §2

- IC50 [1]: > 1000 nM
SMILES: COc1cccc2c1C(=O)c1c(O)c3c(c(O)c1C2=O)C[C@@](O)(C(=O)CO)C[C@@H]3O[C@H]1C[C@H](N)[C@H](O)[C@H](C)O1 [doxorubicin]
- IC50 [2]: ~200 nM
